Where two headings read alike, the source gives them in different places.
Assays:
[1] = target: T1, THR-β (Homo sapiens, UniProt P10828); experiment: Agonistic activity on THR-β (TRβ-LBD/RXRα, biotin-SRC2-2 recruitment, fluorescence ratio 665 nm/615 nm); assay type: biochemical; conditions: for Selectivity THR-β/THR-α: THR-α EC50 ÷ THR-β EC50; for Agonistic activity for THR-β compared to control compound MGL-3196: in words, versus MGL-3196
T1 construct: A mixed solution of 4× TRα-LBD or TRβ-LBD and 4× RXRα was prepared
Experimental: (§1) 100× solutions of reference compounds or compounds were prepared with DMSO and then diluted in a 1:3 equal ratio. The gradient dilution of 100× reference compound or compound was further diluted to 4× with 1× reaction buffer and then added to the test plate. A mixed solution of 4× TRα-LBD or TRβ-LBD and 4× RXRα was prepared with 1× reaction buffer and added to the test plate. […] The plate was centrifuged at 1000 rpm for 1 min and then incubated at room temperature and in the dark for 4 h.

[2] = Pharmacokinetic test in ICR mice, plasma concentration by LC/MS/MS; assay type: in vivo; conditions: for AUC(0-inf): read-out: Exposure AUCinf
Experimental: • Polyethylene glycol 400 (PEG400), manufacturer: Chengdu Kelong Chemical Reagent Factory; • Hydroxypropyl 3-cyclodextrin (HP-β-CD), manufacturer: Shanghai Dibai Chemical Technology Co., Ltd.; • HPC LF, manufacturer: Chengdu Yuannuo Tiancheng Technology Co., Ltd.; • Heparin sodium, manufacturer: Chengdu Kelong Chemical Reagent Factory. • Experimental animals: ICR mice (Chengdu Dossy Experimental Animals CO., LTD.) 2) Experimental Method
Preparation of Test Compound Solution
IV group: 1.15 mg of test compound was accurately weighed, and then DMA (0.228 ml) was added to dissolve the compound, to which were successively added PEG400 (1.139 ml) and 0.1 M of phosphate buffer (5.012 ml). Finally, 40% HP-B-CD was added to the final volume of 11.39 ml. The solution was thoroughly mixed by ultrasonic vortex. A clear solution at the concentration of 0.1 mg/ml was prepared.
PO group: 5.06 mg of test compound was precisely weighed, and then 2% HPC LF (containing 0.1% Tween-80) was added to the final volume of 20.04 ml. The solution was mixed by ultrasound, to prepare a uniform suspension at the concentration of 0.25 mg/ml.
After fasting overnight (free drinking water), nine adult ICR mice (3 mice for each time point) were administered by injection via tail vein and by gavage, respectively. For IV group, 5 min, 15 min, 0.5 h, 1 h, 2 h, 4 h, 8 h, 12 h and 24 h after administration, 0.1 ml of blood was collected from the submandibular vein, centrifuged at 4° C. for 5 min to separate the plasma, and stored at −20° C. for detection. For PO group, before administration and 0.5 h, 1 h, 2 h, 4 h, 6 h, 8 h, 12 h and 24 h after administration, 0.1 ml of blood was collected from the submandibular vein, and the processing was the same as that of IV group.
Then, the concentration of original drug in plasma was determined by LC/MS/MS. The plasma concentration-time curve was plotted, and the main pharmacokinetic parameters were calculated with WinNonlin 6.3 software (see Table 2).

[3] = target: T2, THR-α (Homo sapiens, UniProt P10827); experiment: Agonistic activity on THR-α (TRα-LBD/RXRα, biotin-SRC2-2 recruitment, fluorescence ratio 665 nm/615 nm); assay type: biochemical; conditions: for Agonistic activity for THR-α compared to control compound MGL-3196: in words, versus MGL-3196
T2 construct: A mixed solution of 4× TRα-LBD or TRβ-LBD and 4× RXRα was prepared
Experimental: as §1

T2 sequence (P10827 163-410 isoform P10827-2 limits assumed, other chains not shown): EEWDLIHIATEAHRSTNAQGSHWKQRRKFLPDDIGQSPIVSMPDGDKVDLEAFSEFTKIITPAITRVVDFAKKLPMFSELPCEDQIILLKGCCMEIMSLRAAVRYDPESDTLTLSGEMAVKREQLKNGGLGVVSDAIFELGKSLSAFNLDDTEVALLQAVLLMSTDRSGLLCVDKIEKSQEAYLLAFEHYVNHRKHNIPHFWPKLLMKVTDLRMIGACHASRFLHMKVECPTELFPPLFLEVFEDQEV
T2 sequence (P19793 whole entry partner, other chains not shown, the tested form may be a part): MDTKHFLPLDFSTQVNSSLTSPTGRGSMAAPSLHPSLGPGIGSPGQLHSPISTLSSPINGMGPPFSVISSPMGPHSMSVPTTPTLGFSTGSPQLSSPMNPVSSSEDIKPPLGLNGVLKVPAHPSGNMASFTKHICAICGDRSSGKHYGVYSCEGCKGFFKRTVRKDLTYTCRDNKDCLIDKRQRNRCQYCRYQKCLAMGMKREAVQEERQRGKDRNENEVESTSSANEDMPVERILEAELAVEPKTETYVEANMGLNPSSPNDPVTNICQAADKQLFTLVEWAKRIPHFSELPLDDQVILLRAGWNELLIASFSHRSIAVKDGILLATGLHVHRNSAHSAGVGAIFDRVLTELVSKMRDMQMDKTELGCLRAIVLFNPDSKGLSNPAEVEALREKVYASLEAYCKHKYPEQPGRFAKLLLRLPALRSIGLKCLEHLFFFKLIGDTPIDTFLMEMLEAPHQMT
T1 sequence (P10828 217-461 limits assumed, other chains not shown): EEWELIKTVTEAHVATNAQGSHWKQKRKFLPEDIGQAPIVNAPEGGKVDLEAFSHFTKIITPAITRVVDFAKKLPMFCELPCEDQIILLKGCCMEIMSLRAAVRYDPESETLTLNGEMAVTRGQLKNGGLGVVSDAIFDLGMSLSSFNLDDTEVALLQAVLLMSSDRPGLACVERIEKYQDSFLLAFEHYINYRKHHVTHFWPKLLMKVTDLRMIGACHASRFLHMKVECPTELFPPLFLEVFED
T1 sequence (P19793 whole entry partner, other chains not shown, the tested form may be a part): as the sequence (P19793 whole entry partner, other chains not shown, the tested form may be a part) above

Row | EC50 [1] [µM] | AUC(0-inf) ([2]; ICR, mouse, plasma, dosage 2 mg/kg, route not given) [µg·h/mL] | half-life ([2]; ICR, mouse, plasma, dosage 2 mg/kg, route not given, read-out: Half-life T1/2 (converted)) [h] | Cmax ([2]; ICR, mouse, plasma, dosage 2 mg/kg, route not given, read-out: Peak concentration Cmax) [µg/mL] | Tmax ([2]; ICR, mouse, plasma, dosage 2 mg/kg, route not given, read-out: Peak time Tmax) [h] | Half-life compared to MGL-3196 ([2]; compound at a lower dose, in words) | EC50 [3] [µM] | Selectivity THR-β/THR-α [1] | AUC(0-inf) ([2]; ICR, mouse, plasma, dosage 5 mg/kg, route not given) [µg·h/mL] | Peak time Tmax ([2]; dosage 5 mg/kg, route not given) [h] | SMILES | Agonistic activity for THR-β compared to control compound MGL-3196 [1] | Agonistic activity for THR-α compared to control compound MGL-3196 [3]
1 | 0.03 |  |  |  |  |  | 0.8 | 27 |  |  | CC(C)c1cc(Oc2c(Br)cc(-n3nc(C#N)c(=O)[nH]c3=O)cc2Br)n[nH]c1=O [Compound 13, 2-(3,5-Dibromo-4-((5-isopropyl-6-oxo-1,6-dihydropyridazin-3-yl)oxy)phenyl)-3,5-dioxy-2,3,4,5-tetrahydro-1,2,4-triazine-6-nitrile] | significantly higher agonistic activities | significantly higher agonistic activities
2 | 0.019 |  |  |  |  |  | 0.349 | 18 |  |  | [2H]c1c(Oc2c(Br)cc(-n3nc(C#N)c(=O)[nH]c3=O)cc2Br)n[nH]c(=O)c1C(C([2H])([2H])[2H])C([2H])([2H])[2H] [Compound 15, 2-(3,5-dibromo-4-((6-oxo-5-(propan-2-yl-1,1,1,3,3,3-d6)-1,6-dihydropyridazin-3-yl-4-d)oxy)phenyl)-3,5-dioxy-2,3,4,5-tetrahydro-1,2,4-triazine-6-nitrile] | significantly higher agonistic activities | significantly higher agonistic activities
3 |  |  |  |  |  |  |  |  | 9.36 | 2 | CC(C)c1cc(Oc2c(Cl)cc(-n3nc(C#N)c(=O)[nH]c3=O)cc2Cl)n[nH]c1=O [MGL-3196, reference compound] |  | 

Further lines, the molecule ahead of its results:

Row | SMILES | EC50 [1] [µM] | AUC(0-inf) ([2]; ICR, mouse, plasma, dosage 2 mg/kg, route not given) [µg·h/mL] | half-life ([2]; ICR, mouse, plasma, dosage 2 mg/kg, route not given, read-out: Half-life T1/2 (converted)) [h] | Cmax ([2]; ICR, mouse, plasma, dosage 2 mg/kg, route not given, read-out: Peak concentration Cmax) [µg/mL] | Tmax ([2]; ICR, mouse, plasma, dosage 2 mg/kg, route not given, read-out: Peak time Tmax) [h] | Half-life compared to MGL-3196 ([2]; compound at a lower dose, in words) | EC50 [3] [µM] | Selectivity THR-β/THR-α [1] | AUC(0-inf) ([2]; ICR, mouse, plasma, dosage 5 mg/kg, route not given) [µg·h/mL] | Peak time Tmax ([2]; dosage 5 mg/kg, route not given) [h] | Agonistic activity for THR-β compared to control compound MGL-3196 [1] | Agonistic activity for THR-α compared to control compound MGL-3196 [3]
4 | [2H]C([2H])([2H])C(c1cc(Oc2c(Cl)cc(-n3nc(C#N)c(=O)[nH]c3=O)cc2Br)n[nH]c1=O)C([2H])([2H])[2H] [Compound 2, 2-(3-bromo-5-chloro-4-((5-di(trideuteromethyl)methyl-6-oxo-1,6-dihydropyridazine-3-yl)oxy)phenyl)-3,5-dioxo-2,3,4,5-tetrahydro-1,2,4-triazine-6-nitrile] | 0.052 | 9.26 | 5.25 | 0.96 | 4 | longer | 1.06 |  |  |  |  | 
5 | [2H]C([2H])([2H])C(c1cc(Oc2c(Br)cc(-n3nc(C#N)c(=O)[nH]c3=O)cc2Br)n[nH]c1=O)C([2H])([2H])[2H] [Compound 14] | 0.027 |  |  |  |  |  | 0.326 | 12 |  |  | significantly higher agonistic activities | significantly higher agonistic activities
6 | [2H]c1c(Oc2c(Cl)cc(-n3nc(C#N)c(=O)[nH]c3=O)cc2Br)n[nH]c(=O)c1C(C([2H])([2H])[2H])C([2H])([2H])[2H] [Compound 3, 2-(3-bromo-5-chloro-4-((4-deutero-5-(1,1,1,3,3,3-hexadeuteropropyl-2-yl)-6-oxo-1,6-dihydropyrazin-3-yl)oxy)phenyl)-3,5-dioxy-2,3,4,5-tetrahydro-1,2,4-triazine-6-nitrile] | 0.06 |  |  |  |  |  | 1.33 |  |  |  | significantly higher agonistic activities | 
7 | CC(C)c1cc(Oc2c(Cl)cc(-n3nc(C#N)c(=O)[nH]c3=O)cc2Br)n[nH]c1=O [Compound 1, 2-(3-bronco-5-chloro-4-((5-isopropyl-6-oxo-1,6-dihydropyridazin-3-yl)oxy)phenyl)-3,5-dioxo-2,3,4,5-tetrahydro-1,2,4-triazine-6-nitrile] | 0.057 |  |  |  |  |  | 1.02 |  |  |  | significantly higher agonistic activities | significantly higher agonistic activities

Reference: patent US11926618B2, “Halogen-substituted phenylate compound and applications thereof” (HINOVA PHARMACEUTICALS INC., priority 2019, dated 2024)
